For series [1] the following is noted: cited from earlier work.
The conditions of series [2]: from the two pKa values.
Excerpt: (§1) An ampholytic compound dissolved in an aqueous buffer can be present in the solution either as a cationic, isoelectric or anionic species, depending on the pH of the solution. In the presence of a nonalternating electric field, the cationic or anionic species migrate electrophoretically toward the cathode or the anode, respectively. At a certain solution pH where the ampholyte becomes isoelectric, the net electrophoretic migration of its band becomes zero. The numeric value of this solution pH is equal to the pI value (isoelectric point) of the ampholyte. The pI value of an ampholyte is a material characteristic that is determined by the structure of the ampholyte (the types and pKa values of its weak and strong electrolyte functional groups). When the ampholyte contains a single acidic group (characterized by pKa^acid) and a single basic group (characterized by pKa^conjugate acid for this conjugate acid form), the pI value of the ampholyte can be calculated as pI=(pKa^acid+pKa^conjugate acid)/2. When an ampholyte contains two acidic groups (characterized by pKa^acid1 and pKa^acid2) and one basic group (characterized by pKa^conjugate acid for its conjugate acid form) with pKa^acid1<pKa^acid2<<pKa^conjugate acid, the pI of the ampholyte lies between pKa^acid1 and pKa^acid2 and is calculated as pI=(pKa^acid1 pKa^acid2)/2. In such cases, the acidic groups between which the pI lies are called the buffering groups, while the basic group is called the titrating group or charge balancing group. Similarly, when an ampholyte contains two basic groups (characterized by pKa^conjugate acid1 and pKa^conjugate acid2 for their conjugate acid forms) and one acidic group (characterized by pKa^acid) with pKa^acid<<pKa^conjugate acid1<pKa^conjugate acid2, the pI of the ampholyte lies between pKa^conjugate acid1 and pKa^conjugate acid2 and is calculated as pI=(pKa^conjugate acid1, pKa^conjugate acid2)/2. In such cases, the two basic groups between which the pI lies are called the buffering groups, while the acidic group is called the titrating group or charge balancing group. When the ampholyte contains multiple buffering groups and multiple titrating or charge balancing groups with relatively close pKa values, the charge contribution of each species needs to be evaluated in order to calculate the pI value.
Setting [3] is: first (lower) of the two pKa values.
[4] abbreviates: second (higher) of the two pKa values.

Like-named read-outs stand apart in the source and are kept apart here.

Excerpt for physchem: as §1

As for `O=C(O)c1ccccc1C(=O)O` [1,2-benzenedicarboxylic acid], the pKa is on record as 2.76 in series [1] (setting [3]) and 4.92 in series [1] (setting [4]).
`O=C(O)c1ccc(C(=O)O)cc1` [1,4-benzenedicarboxylic acid]: the pKa in series [1] (setting [3]) is listed as 3.60; in series [1] (setting [4]) it was 4.50.
`O=C(O)c1ccccn1` [pyridine-2-carboxylic acid]: the pKa in the series “physchem” is 2.1. The compound also registered a pI in series [2] of 3.105.
With `O=C(O)c1cccnc1` [pyridine-3-carboxylic acid], in “physchem”, the pKa was 1.3. This compound showed a pI in series [2] of 3.365.
For `O=C(O)c1ccncc1` [pyridine-4-carboxylic acid], the pKa is 1.54 in the series “physchem”, 1.8 in series [1] (setting [3]) and 4.88 in series [1] (setting [4]). This compound also had a pI in series [2] of 3.34.

The values above are taken from patent publication US9689841B2, “Fluorescent pI markers for isoelectric focusing separations and fluorescent labeling” (The Texas A&M University System, priority 2011, dated 2017).
